Results taken from patent US11795213B2, “Methods and compositions for treating celiac disease” (Beth Israel Deaconess Medical Center, Inc., priority 2010, dated 2023).

What was measured:
[1] = test system: celiac biopsies; details: shown previously; cited from earlier work
[2] = test system: THP-1; test: Cytokine secretion by stimulated THP-1 monocytic cells (ELISA); format: cell-based, human
Source text: (§1) To examine how far gliadin elicits innate immune responses, we stimulated the human monocytic cell lines THP-1 and U937 with different concentrations of gliadin digested with pepsin and trypsin (PT gliadin) and measured secretion of proinflammatory cytokines in the supernatant. A digest of zein, partly homolgous storage proteins from corn that lack toxicity for patients with celiac disease, served as negative control. […] To rule out LPS contamination as trigger of innate responses, gliadin, LPS, and TNF-α were digested with proteinase K, completely digesting and abrogating all peptide-related activities.
(§2) THP-1, U937, HEK-293 (all from ATCC, Manassas, VA), and HEK-293 cells stably transfected with the TLR4-CD14-MD2 complex (Invivogen) were cultured in complete RPM or DMEM (Cellgro, Manassas, VA) supplemented with penicillin/streptomycin and 10% fetal calf serum at 37° C. in a 5% CO2 atmosphere.
(§3) For stimulation cells were seeded on polystyrene wells at a density of 1×10^6/ml. Unless otherwise stated supernatants were harvested after a 16 hr incubation with various stimulants.
After proteinase K inactivation by boiling for 5 minute the digests were used for cell stimulation.
(§4) The concentration of IL-8, TNF-α, MCP-1, RANTES, and mouse IL-8 (KC) in cell culture supernatants and serum samples was determined using validated ELISAs (IL-8, hTNFα: BD Pharmingen, San Jose, CA; MCP-1, hRANTES, mRANTES, KC: R&D Systems, (Minneapolis, MN; mTNFα: eBioscience, San Diego, CA), according to the manufacturer's protocols.

[3] = test system: intestinal epithelial cell lines (HT29, Caco-2 and T84); test: Cytokine secretion by intestinal epithelial cell lines; format: cell-based; details: even at 40 μg/ml
Procedure: as §3, §4

[4] = test system: U937; test: Cytokine secretion by stimulated U937 monocytic cells (ELISA); format: cell-based, human; details: even at 40 μg/ml
Source text: as §1, §2, §3, §4

[5] = test system: peritoneal macrophages of C3H/HeJ mice that lack TLR4 responses; test: Cytokine secretion by peritoneal macrophages of TLR4 deficient C3H/HeJ versus C3H/HeOuJ mice; format: cell-based, mouse; details: TLR4 deficient C3H/HeJ compared to syngenic C3H/HeOuJ TLR4 competent mice
Procedure: Since MyD88 transmits signals from several TLRs, we studied peritoneal macrophages of C3H/HeJ mice that lack TLR4 responses due to a spontaneous point mutation in the TLR4 gene.
Murine resident peritoneal macrophages were isolated by peritoneal lavage using a 3 ml syringe and 18 G needles. Three 3 ml of sterile PBS was injected into the peritoneal cavity and reaspirated after gentle massage of the abdomen. For further purification MACS separation for CD11b positive cells was done according to the manufacturer's protocol (Miltenyi).
as §3
C3H/HeJ, C3H/HeOuJ and Rag1−/− mice were obtained from The Jackson Laboratory (Bar Harbour, ME). The MyD88−/− mice were a kind gift from S. Akira, (Osaka University, Osaka, Japan). Congenic C57BL/6J mice served as experimental controls and were bred under the same conditions in the same facility. All experiments were done with mice at age 5-7 weeks.
as §4

[6] = molecular target: T1, human TLR4-CD14-MD2-complex (Homo sapiens, UniProt O00206+Q9Y6Y9); test: IL-8 secretion by HEK-293 cells transfected with TLR4-CD14-MD2 complex; format: cell-based; details: for IL-8 secretion: TLR4-CD14-MD2 transfected HEK-293; for stimulatory activity after additional purification using an endotoxin depletion column: 5 μg/ml, IL-8 after 24 h, FIG. 9C
T1 construct: host or cells: HEK-293 (stably transfected)
T1 sequence (O00206 24-839): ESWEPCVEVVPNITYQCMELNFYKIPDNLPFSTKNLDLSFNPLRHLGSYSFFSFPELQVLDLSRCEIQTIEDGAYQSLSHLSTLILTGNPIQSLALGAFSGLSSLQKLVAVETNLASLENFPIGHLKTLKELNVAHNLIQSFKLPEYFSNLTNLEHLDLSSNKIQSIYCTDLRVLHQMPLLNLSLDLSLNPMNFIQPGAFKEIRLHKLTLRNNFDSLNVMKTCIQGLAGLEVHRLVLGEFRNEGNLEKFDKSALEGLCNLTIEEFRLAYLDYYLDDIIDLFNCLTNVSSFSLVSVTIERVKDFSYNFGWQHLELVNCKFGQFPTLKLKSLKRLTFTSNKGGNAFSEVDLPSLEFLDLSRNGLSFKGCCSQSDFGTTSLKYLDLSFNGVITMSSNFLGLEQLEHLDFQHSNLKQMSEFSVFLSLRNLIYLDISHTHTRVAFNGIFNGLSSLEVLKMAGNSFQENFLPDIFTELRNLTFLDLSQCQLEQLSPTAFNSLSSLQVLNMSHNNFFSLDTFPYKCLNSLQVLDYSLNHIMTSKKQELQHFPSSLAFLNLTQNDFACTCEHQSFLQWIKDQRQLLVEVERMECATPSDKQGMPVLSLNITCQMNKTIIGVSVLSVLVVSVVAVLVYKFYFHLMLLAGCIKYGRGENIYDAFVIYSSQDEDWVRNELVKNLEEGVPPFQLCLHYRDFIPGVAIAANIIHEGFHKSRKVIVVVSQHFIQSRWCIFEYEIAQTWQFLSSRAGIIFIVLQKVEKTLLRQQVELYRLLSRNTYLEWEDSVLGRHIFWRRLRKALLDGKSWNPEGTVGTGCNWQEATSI
T1 sequence (Q9Y6Y9 17-160 limits assumed): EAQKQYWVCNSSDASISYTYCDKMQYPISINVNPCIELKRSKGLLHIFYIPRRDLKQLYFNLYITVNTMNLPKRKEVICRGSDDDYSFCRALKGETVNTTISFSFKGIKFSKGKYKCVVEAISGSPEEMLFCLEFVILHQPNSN
Procedure: as §2, §3, §4
While sufficient CM3 protein was secreted into the media, 0.19 ATI had to be isolated from the detergent-soluble fraction. Briefly, HEK-cells expressing 0.19 were washed with ice cold-PBS, resuspended in 50 ml of buffer C for 15 min on ice, and centrifuged at 14,000 rpm for 20 min at 4° C. Thus, the solubilized 0.19 and soluble CM3 were bound to Flag-M2 agarose (Sigma-Aldrich) pre-equilibrated with buffer C by gentle shaking for 3 h at 4° C., washed three times with buffer C, and further washed three times with buffer D (Buffer C without detergents). Bound ATIs were eluted with TBS [pH 7.4] containing Flag peptide (Sigma-Aldrich). In order to rigorously exclude endotoxin, eluted CM3 and 0.19 were also applied to an entotoxin removal column (Norgen Biotek corp., Thorold, ON, Canada). ATIs were the used at 5 μg/ml to stimulate HEK-293 cells stably transfected with the TLR4-CD14-MD2 complex, and IL-8 secretion was quantified after 24 h using the IL-8 ELISA as described above.

[7] = test system: TLR4-pathway; test: Downstream signaling by CM3 and 0.19 overexpression in TLR4-CD14-MD2 expressing HEK-293 cells (Western blot); format: cell-based; details: overexpression in TLR4/MD2/CD14 expressing HEK-293 cells
Procedure: FIG. 9D is a western blot showing expression of CM3 and 0.19 in TLR4-CD14-MD2 expressing HEK-293 cells (HEK-TLR4) induces downstream signaling of the canonical (p-NF-κB/p65) and the alternative (p-IRF3) pathways. Western blots of whole cell lysates (50 μg protein).
HEK-293 cells stably expressing TLR4-CD14-MD2 were induced to express CM3 or 0.19, respectively, followed by cell lysis in buffer C. Lysates were cleared by centrifugation at 14,000 rpm for 20 min at 4° C., and 50 μg of protein run on a 15% SDS-gel and subjected to Western blotting to analyze activation of the canonical and the alternative (p-IRF3) pathways using antibodies to phosphorylated and unphosphorylated (p-NF-κB/p65) and IRF3 (all from Cell Signaling Technology, Danvers, MA).

[8] = test system: human monocyte-derived dendritic cells (DC); test: Cytokine secretion by human monocyte-derived dendritic cells (ELISA); format: cell-based
Procedure: For isolation of peripheral monocytes 40 ml blood was obtained from 11 patients with celiac disease during their diagnostic workup (median 37 years, range 18-59 years), after prior informed consent Eight patients were on gluten free diet and in clinical remission, three patients were newly diagnosed and therefore on a regular gluten containing diet Control monocytes were from the buffy coat of leukopheresis concentrates of anonymous blood donors. Whole EDTA blood or leukapheresis concentrates were subjected to density gradient centrifugation over Ficoll-Hypaque (GE Healthcare, Pittsburgh, PA) and CD14-positive monocytes purified by MACS separation according to the manufacturer's protocol (Miltenyi, Bergisch Gladbach, Germany). For generation of dendritic cells, monocytes were cultured in RPMI supplemented with 10% fetal calf serum, 200 U/ml rhIL-4 and 300 U/ml rhGM-CSF (both from PeproTech, Rocky Hill, NJ) for 6-8 days.
For stimulation cells were seeded on polystyrene wells at a density of 1×10^6/ml. […]
as §4

Which results are given for “LGQQQPFPPQQPY [p31-43, Peptide p31-43 of α-gliadin]”?
IL-15 secretion [1]: increases IL-15 secretion; IL-8 secretion ([2]; even at 40 μg/ml): did not elicit secretion; MCP-1 secretion ([2]; even at 40 μg/ml): did not elicit secretion; TNF-α secretion ([2]; even at 40 μg/ml): did not elicit secretion; IL-8 secretion [3]: did not elicit secretion; MCP-1 secretion [3]: did not elicit secretion; TNF-α secretion [3]: did not elicit secretion; IL-8 secretion [4]: did not elicit secretion; MCP-1 secretion [4]: did not elicit secretion; TNF-α secretion [4]: did not elicit secretion

For “N-Palmitoyl-S-[2,3-bis(palmitoyloxy)-(2RS)-propyl]-[R]-cysteinyl-[S]-seryl-[S]-lysyl-[S]-lysyl-[S]-lysyl-[S]-lysine x3 HCl [Pam3CSK4]”, which “KC (IL-8) secretion” value [5] is on record?
Its value is “equally high amounts”.

And the TNF-α secretion [5]?
The TNF-α secretion was “equally high amounts”.

What about the IL-8 secretion [6] of the same molecule?
Its IL-8 secretion is “absence of IL-8 induction”.

For TNF-α, which “IL-8 induction after proteinase K digestion of the stimulant” value ([2]; 20 μg/ml proteinase K, 4 hrs at 56° C., FIG. 1F) is on record?
The value was “lost its stimulatory capacity”.

B1: 0.19: recombinant flag-tagged wheat alpha amylase inhibitor 0.19 (SEQ ID NO: 2) expressed in HEK-293 cells (protein, listed as Triticum aestivum)
chain: SGPWMCYPGQAFQVPALPACRPLLRLQCNGSQVPEAVLRDCCQQLAHISEWCRCGALYSMLDSMYKEHGAQEGQAGTGAFPRCRREVVKLTAASITAVCRLPIVVDASGDGAYVCKDVAAYPD
modifications: FLAG tag
With B1 as the molecule, how does the “stimulatory activity after additional purification using an endotoxin depletion column” value [6] read?
Its value is “maintained”.

And the IL-8 secretion [6]?
The IL-8 secretion was “stimulated”.

What about the “alternative TLR4-pathway (p-IRF3)” value [7] of the same molecule?
The value was “strongly induced”.

And the “canonical TLR4-pathway (p-NF-κB/p65)” value [7]?
The value was “strongly induced”.

B2: CM3: recombinant flag-tagged wheat alpha amylase inhibitor CM3 (SEQ ID NO: 1) expressed in HEK-293 cells (protein)
chain: MACKSSCSLLLLAAVLLSVLAAASASGSCVPGVAFRTNLLPHCRDYVLQQTCGTFTPGSLPEWMTSASIYSPGKPYLAKLYCCQELAEISQQCRCEALRYFIALPVPSQPVDPRSGNVGESGLIDLPGCPREMQWDFVRLLVAPGQCNLATIHNVRYCPAVEQPLWIDYKDDDDK
modifications: FLAG tag
For B2, which IL-8 secretion [8] is on record?
Its IL-8 secretion is “upregulated IL-8 secretion”.

And the “stimulatory activity after additional purification using an endotoxin depletion column” value [6]?
The value was “maintained”.

And the IL-8 secretion [6]?
The IL-8 secretion was “stimulated”.

What about the “alternative TLR4-pathway (p-IRF3)” value [7] of the same molecule?
The value was “strongly induced”.

And the “canonical TLR4-pathway (p-NF-κB/p65)” value [7]?
Its value is “strongly induced”.
